# Experimental data taken from patent US7880010B2, “Crystalline forms of a dimethylphenyl compound” (Theravance, Inc., priority 2006, dated 2011).
# Biological target: T1, hM2 receptor (Homo sapiens, UniProt P08172)
# T1 construct: expressed in transfected cells; host or cells: CHO / CHO-K1
# T1 sequence (P08172 1-466): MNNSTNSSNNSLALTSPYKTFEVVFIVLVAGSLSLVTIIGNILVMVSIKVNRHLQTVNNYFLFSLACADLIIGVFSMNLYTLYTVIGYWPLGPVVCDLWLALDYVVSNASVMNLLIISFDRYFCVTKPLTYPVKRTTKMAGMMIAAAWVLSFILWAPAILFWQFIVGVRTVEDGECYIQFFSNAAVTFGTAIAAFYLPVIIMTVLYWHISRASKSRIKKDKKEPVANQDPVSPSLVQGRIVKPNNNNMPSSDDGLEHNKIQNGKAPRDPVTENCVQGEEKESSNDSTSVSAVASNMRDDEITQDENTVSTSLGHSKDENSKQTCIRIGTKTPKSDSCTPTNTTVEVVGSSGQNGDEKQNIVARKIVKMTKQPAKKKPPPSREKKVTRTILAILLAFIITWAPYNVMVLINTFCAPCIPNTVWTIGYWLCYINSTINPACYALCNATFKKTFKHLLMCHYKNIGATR
# Experiment: Blockade of agonist-mediated inhibition of cAMP accumulation (Assay A)
# Type: cell-based
# Details: CHO-K1 cells expressing the hM2 receptor
# Procedure: In this assay, the functional potency of a test compound as an antagonist for the hM2 receptor was determined by measuring the ability of the test compound to block oxotremorine-inhibition of forskolin-mediated cAMP accumulation in CHO-K1 cells expressing the hM2 receptor. cAMP assays were performed in a radioimmunoassay format using the Flashplate Adenylyl Cyclase Activation Assay System with ^125I-cAMP (NEN SMP004B, PerkinElmer Life Sciences Inc., Boston, Mass.), according to the manufacturer's instructions. Cells were rinsed once with dPBS and lifted with Trypsin-EDTA solution (0.05% trypsin/0.53 mM EDTA) as described in the Cell Culture and Membrane Preparation section above. The detached cells were washed twice by centrifugation at 650×g for five minutes in 50 mL dPBS. The cell pellet was then re-suspended in 10 mL dPBS, and the cells were counted with a Coulter Z1 Dual Particle Counter (Beckman Coulter, Fullerton, Calif.). […]
# Reactions were incubated for 10 minutes at 37° C. and stopped by addition of 100 μL ice-cold detection buffer. Plates were sealed, incubated overnight at room temperature and counted the next morning on a PerkinElmer TopCount liquid scintillation counter (PerkinElmer Inc., Wellesley, Mass.). The amount of cAMP produced (pmol/well) was calculated based on the counts observed for the samples and cAMP standards, as described in the manufacturer's user manual. […]
structure (smiles),measurement,value
"Cc1cc(NC(=O)CCN2CCC(OC(=O)Nc3ccccc3-c3ccccc3)CC2)c(C)cc1CNC[C@H](O)c1ccc(O)c(NC=O)c1 [compound of formula I, biphenyl-2-ylcarbamic acid 1-[2-(4-{[(R)-2-(3-formylamino-4-hydroxyphenyl)-2-hydroxyethylamino]methyl}-2,5-dimethylphenylcarbamoyl)ethyl]-piperidin-4-yl ester]",Kobs for blockade of oxotremorine-inhibition of forskolin-mediated cAMP accumulation,less than 10 nM
